Where two headings read alike, the source gives them in different places. One block for each compound: values may come before it. Peptide text beside a SMILES is read from it.
Experiments:
[1] = 2-hour (peak) antiretroviral drug levels in blood; settings: for concentration at 2 h: blood, po, mean 2-hour drug level, oral ARV therapy; for number of patients whose AZT levels did not improve (of eight): 14 patients taking AZT; for number of patients with an increase in their D4T levels / number of patients who did not increase their D4T levels: 15 patients on D4T; for number of patients whose 3TC levels did not improve / number of patients whose 3TC levels improved with therapy: 18 patients on 3TC; for drug levels improved, all ARV drugs including NNRTI and PI / mean percent improvement in antiretroviral drug levels / peak paired NRTI levels improved: after 7 days of study drug
Source text: HUV positive patients on therapy presenting at the Hospital Sao Jose with diarrhea (≧3 stools/day×14 days) and wasting (loss of ≧10% of their body weight) from March 2001 to April 2002, were invited to participate. After informed consent, patients were assigned to one of four equi-nitrogenous blinded study groups including glycine controls (FIG. 1). Group A received 46 gm of oral glycine/day (Spectrum, Gardena, Calif.). Group B received 30 gm of oral glutamine/day (Cambridge Neutraceuticals, Cambridge, Mass.) and 15 gm of glycine, Group C received 4 grams alanyl-glutamine (Degussa/Creanova, Parsippany, N.J.) and 42 gm of glycine and Group D received 44 gm of alanyl-glutamine (Ala-Gln). The 44 gm alanyl-glutamine dose was calculated to contain equimolar glutamine to 30 gm of glutamine, and glycine was added to glutamine and low dose alanyl-glutamine groups to equalize the amount of nitrogen received by all participants.
Antiretroviral drug levels were determined at Tibotec-Virco, Mechelen, Belgium. Peak values were determined for each drug, and drug level ranges supplied by the manufacturer were used to define low levels. Viral genotype was determined by DNA sequencing at Visible Genetics, Suwanee, Ga. […] Two-tailed statistical analyses for comparison of paired values included Student's t-test and ANOVA and expressed as […] the standard deviation. Chi-square test or Fisher Exact test were used to compare proportions.

[2] = test system: HIV positive patients with diarrhea and wasting; assay: Clinical response by diarrhea frequency and consistency in AIDS patients with diarrhea and wasting; assay type: in vivo, human; settings: 7 days; high dose Ala-Gln 44 gm/day; glycine controls 46 gm/day
Source text: Patients were asked daily about the frequency and consistency of their diarrhea and other gastrointestinal complaints including anorexia, vomiting, and abdominal cramping. Changes in frequency of diarrhea was scored as 0 if the total number of stools in the second half of the 9-day study was less than 2 fewer (or greater) than the number in the first half of the study (including the 2 days before study treatment was started); scored as − or +1 if stool frequencies were reduced or increased by 2 to 3, respectively; and − or +2 if the frequencies were reduced or increased by >3, respectively. In addition, consistencies were graded as liquid, soft or formed and scored as 0, 1 or 2 respectively and changes were added to the frequency scores above. Intestinal permeability was measured by urinary excretion of lactulose, mannitol and their ratio as previously described (Lima et al., Am J Gastroenterol 1997; 92(10):1861-1866). Lactulose and mannitol in urine was determined by high performance liquid chromatography (HPLC) and at Great Smokies Diagnostic Laboratory, Asheville, N.C.

[3] = test system: salt and water absorption; settings: compared with glucose; cited from earlier work
[4] = compared with glutamine; cited from earlier work
[5] = test system: small intestinal epithelial crypt cells (line IEC-6); assay: IEC-6 cell migration after wounding (restitution model); assay type: cell-based; settings: IEC-6 cells, 2.5 mmol/liter
Source text: In 1992, McCormack et al. established a model to study the process of cell migration involved in the early restitution of mucosal erosion. […] This model system is used in the present invention in order to show the important effect of stable glutamine derivatives on intestinal epithelial restitution. To investigate the ability of glutamine and stabilized glutamine derivatives to enhance the healing of mucosal tissues, a model system based on the migration of small intestinal epithelial crypt cells (line IEC-6) was used. The small epithelial crypt cell line (IEC-6 cells) was obtained from the American Type Culture Collection (Rockville, Md.). The medium consisted of Dullbecco's modified Eagle medium (DMEM) with 5% heat-inactivated FBS and 10 μg insulin and 50 μg gentamicin sulfate per milliliter. For the experiments, the cells were taken up with 0.25% trypsin plus 2.65 mM EDTA and plated at 6.25×10^4 cell/cm^2 in 35 mm dishes thinly coated with Matrigel according to the manufacturer's instructions. The cells were fed every other day. To initiate migration, the cell layer was scratched with a single razor blade cut to approximately 27 mm in length. The scratch began at the diameter of the dish and extended over an area 7 to 10 mm wide. After the scratch, the cells were washed twice with sterile PBS. Then, medium containing no supplemental substances or medium containing glutamine or alanyl-glutamine (2.5 mmol/liter) was replaced, and the dishes were returned to the incubator. The experiments were carried out in triplicate. After 6 hours, 8 hours, and 24 hours, the dishes were removed from the incubator, and photographed using an inverted phase contrast microscope attached with camera The migration cells in five contiguous 0.1-mm squares were counted at ×100 magnification beginning at the scratch line and extending as far out as the cells had migrated. The counting was done in the area of the highest migration rate by means of an eyepiece reticle.

intestinal permeability = settings: over 28 days, cited from earlier work
[6] = all study groups together, 18 on 3TC, 15 on D4T, 14 on AZT
[7] = human, controls without diarrhea or wasting
[8] = human, study patients with diarrhea and wasting
[9] = study patients with diarrhea and wasting
[10] = high dose Ala-Gln, control group
[11] = high dose Ala-Gln, Gln, glycine
[12] = high dose Ala-Gln 44 gm/day, Gln 30 gm/day (+15 gm glycine), glycine 46 gm/day
[13] = high dose Ala-Gln 44 gm/day, Gln 30 gm/day (+15 gm glycine), glycine controls 46 gm/day
[14] = low dose Ala-Gln 4 grams/day (+42 gm glycine)

Structure (SMILES): Nc1ccn([C@@H]2CS[C@H](CO)O2)c(=O)n1 [3TC, lamivudine, reference compound]
number of patients whose level of this ARV drug improved with therapy [1, 6]: 10 | concentration at 2 h [1, 7]: 2810 ng/mL | concentration at 2 h [1, 8]: 1500 ng/mL | patients with drug levels below the expected range, in words [1, 9]: All

Structure (SMILES): Cc1cn([C@H]2C[C@H](N=[N+]=[N-])[C@@H](CO)O2)c(=O)[nH]c1=O [AZT, zidovudine, reference compound]
number of patients whose level of this ARV drug improved with therapy [1, 6]: six

Structure (SMILES): O=c1[nH]cnc2c1ncn2[C@H]1CC[C@@H](CO)O1 [ddI, didanosine, reference compound]
concentration at 2 h [1, 7]: 737 ± 226 ng/mL | concentration at 2 h [1, 8]: 397 ± 151 ng/mL | patients with drug levels below the expected range, in words [1, 9]: All

Structure (SMILES): C[C@H](N)C(=O)N[C@@H](CCC(N)=O)C(=O)O [Ala-Gln, alanyl-glutamine] (H-Ala-Gln-OH)
patients improved (diarrhea frequency and consistency) [2]: 89% | drive of salt and water absorption [3]: comparable to, if not better, than glucose | stability in acidic water solutions [4]: much more stable | cell migration compared to control ([5]; 6 hours, 8 hours, and 24 hours after the scratch): significantly enhanced cell migration | cell migration increase related to control ([5]; 8 hours after the scratch): 107% | cell migration increase related to control ([5]; 24 hours after the scratch): 173% | enhancement of cell migration, more than glutamine ([5]; after 6 hours): 46% | enhancement of cell migration, more than glutamine ([5]; after 8 hours): 55% | number of patients whose AZT levels did not improve (of eight) [1, 10]: 1 | number of patients whose AZT levels did not improve (of eight) ([1]; low dose Ala-Gln): 3 | number of patients with an increase in their D4T levels ([1]; high dose Ala-Gln): 3 | number of patients who did not increase their D4T levels [1, 11]: 1 | number of patients who did not increase their D4T levels ([1]; low dose Ala-Gln): 2 | number of patients with an increase in their D4T levels ([1]; low dose Ala-Gln): 3 | number of patients whose 3TC levels did not improve [1, 11]: none | number of patients whose 3TC levels improved with therapy [1, 11]: 2 | number of patients whose 3TC levels did not improve ([1]; low dose Ala-Gln): 3 | number of patients whose 3TC levels improved with therapy ([1]; low dose Ala-Gln): 4 | drug levels improved, all ARV drugs including NNRTI and PI [1, 12]: 63% | mean percent improvement in antiretroviral drug levels [1, 13]: 113% | peak paired NRTI levels improved [1, 13]: 75% | drug levels improved, all ARV drugs including NNRTI and PI [1, 14]: 50% | mean percent improvement in antiretroviral drug levels [1, 14]: 8% | peak paired NRTI levels improved [1, 14]: 55%

Structure (SMILES): NCC(=O)O [glycine, reference compound]
patients improved (diarrhea frequency and consistency) [2]: 38% | number of patients whose AZT levels did not improve (of eight) [1, 10]: half | number of patients who did not increase their D4T levels [1, 11]: 2 | number of patients whose 3TC levels did not improve [1, 11]: 3 | number of patients whose 3TC levels improved with therapy [1, 11]: 2 | drug levels improved, all ARV drugs including NNRTI and PI [1, 12]: 20% | mean percent improvement in antiretroviral drug levels [1, 13]: −32% | peak paired NRTI levels improved [1, 13]: 15.4%

Structure (SMILES): NC(=O)CC[C@H](N)C(=O)O [Gln, glutamine]
intestinal permeability (intestinal permeability; 4 g/day): less worsening | absorption of mannitol (intestinal permeability; 8 g/day): improved | intestinal permeability (intestinal permeability; 8 g/day): stabilization | number of patients who did not increase their D4T levels [1, 11]: 3 | number of patients whose 3TC levels did not improve [1, 11]: 2 | number of patients whose 3TC levels improved with therapy [1, 11]: 2 | drug levels improved, all ARV drugs including NNRTI and PI [1, 12]: 57% | mean percent improvement in antiretroviral drug levels [1, 13]: 14% | peak paired NRTI levels improved [1, 13]: 64.3%

More lines, now with the values ahead:

patients with drug levels below the expected range (low drug levels) [1, 9]: 44%
Structure (SMILES): Cc1c(O)cccc1C(=O)N[C@@H](CSc1ccccc1)[C@H](O)CN1C[C@H]2CCCC[C@H]2C[C@H]1C(=O)NC(C)(C)C [nelfinavir, reference compound]

patients with drug levels below the expected range (low drug levels) [1, 9]: 85%
Structure (SMILES): O=C1Nc2ccc(Cl)cc2[C@@](C#CC2CC2)(C(F)(F)F)O1 [efavirenz, reference compound]

patients with drug levels below the expected range, in words ([1]; in vivo): All
Structure (SMILES): CC(C)(C)NC(=O)[C@@H]1C[C@@H]2CCCC[C@@H]2CN1C[C@@H](O)[C@H](Cc1ccccc1)NC(=O)[C@H](CC(N)=O)NC(=O)c1ccc2ccccc2n1 [saquinavir, reference compound]

patients with drug levels below the expected range (low drug levels) ([1]; human, in vivo, 2 h): 20% | number of patients whose level of this ARV drug improved with therapy ([1]; in vivo): seven
Structure (SMILES): Cc1cn([C@H]2C=C[C@@H](CO)O2)c(=O)[nH]c1=O [stavudine, reference compound]

patients with drug levels below the expected range, in words [1, 9]: All
Structure (SMILES): CC(C)c1nc(CN(C)C(=O)N[C@H](C(=O)N[C@@H](Cc2ccccc2)C[C@H](O)[C@H](Cc2ccccc2)NC(=O)OCc2cncs2)C(C)C)cs1 [ritonavir, reference compound]

Reference: US20060052298A1, “Use of stable glutamine derivatives to improve drug absorption” (priority 2002, published 2006)
